Laboratory results: patent publication US9751840B2, “R-7-(3-aminomethyl-4-methoxyimino-3-methyl-pyrrolidin-1-yl)-1-cyclopropyl-6-fluoro-4-oxo-acid and L-aspartic acid salt, process for the preparation thereof and pharmaceutical composition comprising the same for antimicrobial” (ARIBIO CO. LTD., priority 2009, dated 2017)
Converted amounts (≈) assume the structure as drawn. Where two headings read alike, the source gives them in different places.

How the values were obtained:
[1] = tested on: Male ICR mice; assay: Single dose toxicity in mice (LD50); conditions: single intraperitoneal dose, observed 14 days
Method: The following experiment was performed in order to observe the degree of toxicity of the L-aspartate according to the present invention.
Male ICR mice were used as experimental animals. 5 male ICR mice were divided into 6 dose groups, respectively and fasted except for water for 24 hours.

[2] = Solubility test; assay type: physicochemical
[3] = In vivo tissue distribution test; set-up: species or system ICR mice; conditions: mouse, po; for Kp: ICR, 100 mg/kg
Method: An in vivo tissue distribution test was performed in order to confirm the degree of drug distribution of the L-aspartate and hydrochloride according to the present invention in each organ. After 8-week-old ICR mice were purchased and adapted in the laboratory, each salt was orally administered to the mouse at a dose of 100 mg/kg. The mice were bled and sacrificed at a predetermined time and each organ was drawn to measure the concentration in each organ. After the administration of hydrochloride and L-aspartate, each organ concentration over time, the area under the corresponding time-concentration curve, and the ratio of permeation into tissue were shown in Tables 5 and 6.
Then, P ratio is a ratio of permeation into muscle and calculated as intramuscular AUC/intraplasmic AUC.

[4] = Stability test in distilled water; assay type: physicochemical; conditions: 30 mg in 100 ml distilled water
[5] = tested on: polychromatic erythrocyte with one or more nuclei (MNPCE); assay: In vivo genotoxicity, micronucleus test; conditions: male mice, twice intraperitoneal, 30, 15, 7.5 mg/kg
Excerpt: The following study performed to obtain in vivo genotoxicities, micronucleus test of L-aspartate and hydrochloric acid salt in male mice to the following procedure.

[6] = In vivo tissue distribution test; set-up: species or system ICR mice; conditions: ICR, mouse, spleen, po, 100 mg/kg; read-out: P ratio Spleen
[7] = In vivo pharmacokinetic test; set-up: species or system SD rats; conditions: rats
Excerpt: The L-aspartate and hydrochloride according to the present invention were orally or intravenously administered to SD rats, respectively and blood samples were collected at a predetermined time to compare in vivo pharmacokinetics.
Then, Cmax: maximum drug concentration, Tmax: maximum drug concentration time, T1/2: drug half-life, AUCO-t: area under the plasma concentration-time curve from time zero to t hours, and AUCO-inf: area under the plasma concentration-time curve from time zero to infinity.

[8] = male, testicle, ICR mice, p.o. 100 mg/kg, read-out: Testicle concentration
[9] = brain, ICR mice, p.o. 100 mg/kg, read-out: Brain concentration
[10] = heart, ICR mice, p.o. 100 mg/kg, read-out: Heart concentration
[11] = kidney, ICR mice, p.o. 100 mg/kg, read-out: Kidney concentration
[12] = liver, ICR mice, p.o. 100 mg/kg, read-out: Liver concentration
[13] = lung, ICR mice, p.o. 100 mg/kg, read-out: Lung concentration
[14] = muscle, ICR mice, p.o. 100 mg/kg, read-out: Muscle concentration
[15] = plasma, ICR mice, p.o. 100 mg/kg, read-out: Plasma concentration
[16] = spleen, ICR mice, p.o. 100 mg/kg, read-out: Spleen concentration
[17] = testicle, ICR mice, p.o. 100 mg/kg, read-out: Testicle concentration
[18] = thymus, ICR mice, p.o. 100 mg/kg, read-out: Thymus concentration
[19] = SD, rat, plasma, iv, i.v. 10 mg/kg
[20] = SD, rat, plasma, po, p.o. 100 mg/kg

In the case of `CO/N=C1/CN(c2nc3c(cc2F)c(=O)c(C(=O)O)cn3C2CC2)C[C@@]1(C)CN` [L-aspartate (Example 1)], the “Lethal dose 50” value [1] is reported as 209 mg/kg, the “Solubility relative to the hydrochloride” value ([2]; distilled water) is reported as “about 2 times” and the solubility ([2]; room temperature, water) is reported as 190 mg/mL (≈ 470 mM). It also gave a Kp ([3]; brain, read-out: P ratio Brain) of 0.27, a Kp ([3]; heart, read-out: P ratio Heart) of 4.28 and a Kp ([3]; kidney, read-out: P ratio Kidney) of 7.44. For the same compound, the Kp ([3]; liver, read-out: P ratio Liver) was 11.2, the Kp ([3]; lung, read-out: P ratio Lung) was 6.01 and the Kp ([3]; muscle, read-out: P ratio Muscle) was 3.87. The Kp ([3]; thymus, read-out: P ratio Thymus) was 4.96, the Kp ([3]; male, testicle, read-out: P ratio Testicle) was 1.75 and the concentration at 0.5 h [3, 8] was 4940 ng/g. For the same compound, the concentration at 1 h [3, 8] was 8820 ng/g, the concentration at 8 h [3, 8] was 6970 ng/g and the concentration at 0.5 h [3, 9] was 2280 ng/g. The concentration at 1 h [3, 9] was 2550 ng/g, the concentration at 1.5 h [3, 9] was 2340 ng/g and the concentration at 2 hr [3, 9] was 2570 ng/g. For the same compound, the concentration at 3 h [3, 9] was 2020 ng/g, the concentration at 5 h [3, 9] was 1520 ng/g and the concentration at 8 h [3, 9] was 330 ng/g. For the same compound, the concentration at 0.5 h [3, 10] was 47200 ng/g, the concentration at 1 h [3, 10] was 58000 ng/g and the concentration at 1.5 hr [3, 10] was 50000 ng/g. It also gave a concentration at 2 hr [3, 10] of 36700 ng/g, a concentration at 3 h [3, 10] of 27700 ng/g and a concentration at 5 h [3, 10] of 1330 ng/g. It also gave a concentration at 8 h [3, 10] of 8720 ng/g, a concentration at 0.5 h [3, 11] of 79200 ng/g and a concentration at 1 h [3, 11] of 79200 ng/g. For the same compound, the concentration at 1.5 h [3, 11] was 77400 ng/g, the concentration at 2 hr [3, 11] was 62200 ng/g and the concentration at 3 h [3, 11] was 48800 ng/g. The concentration at 5 h [3, 11] was 34000 ng/g, the concentration at 8 h [3, 11] was 20200 ng/g and the concentration at 0.5 h [3, 12] was 128000 ng/g. It also gave a concentration at 1 h [3, 12] of 114000 ng/g, a concentration at 1.5 h [3, 12] of 118000 ng/g and a concentration at 2 hr [3, 12] of 85400 ng/g. For the same compound, the concentration at 3 h [3, 12] was 70800 ng/g, the concentration at 5 h [3, 12] was 57400 ng/g and the concentration at 8 h [3, 12] was 26600 ng/g. The concentration at 0.5 h [3, 13] was 76300 ng/g, the concentration at 1 h [3, 13] was 70100 ng/g and the concentration at 1.5 h [3, 13] was 71500 ng/g. The concentration at 2 hr [3, 13] was 52700 ng/g, the concentration at 3 h [3, 13] was 38700 ng/g and the concentration at 5 h [3, 13] was 24500 ng/g. It also gave a concentration at 8 h [3, 13] of 11600 ng/g, a concentration at 0.5 h [3, 14] of 38000 ng/g and a concentration at 1 h [3, 14] of 39600 ng/g. The concentration at 1.5 h [3, 14] was 37400 ng/g, the concentration at 2 hr [3, 14] was 36700 ng/g and the concentration at 3 h [3, 14] was 28800 ng/g. For the same compound, the concentration at 5 h [3, 14] was 18000 ng/g, the concentration at 8 h [3, 14] was 6930 ng/g and the concentration at 0.5 h [3, 15] was 11.6 µg/mL. The concentration at 1 h [3, 15] was 12.2 µg/mL, the concentration at 1.5 h [3, 15] was 10.7 µg/mL and the concentration at 2 hr [3, 15] was 8.47 µg/mL. It also gave a concentration at 3 h [3, 15] of 6.3 µg/mL, a concentration at 5 h [3, 15] of 4.62 µg/mL and a concentration at 8 h [3, 15] of 1.87 µg/mL. It also gave an AUC(0-t) ([3]; plasma, ICR mice, p.o. 100 mg/kg, read-out: AUC0-t Plasma) of 47.4 µg·h/mL, a concentration at 0.5 h [3, 16] of 91600 ng/g and a concentration at 1 h [3, 16] of 98100 ng/g. For the same compound, the concentration at 1.5 hr [3, 16] was 84900 ng/g, the concentration at 2 hr [3, 16] was 67300 ng/g and the concentration at 3 h [3, 16] was 57600 ng/g. For the same compound, the concentration at 5 h [3, 16] was 43700 ng/g, the concentration at 8 h [3, 16] was 23400 ng/g and the concentration at 1.5 hr [3, 17] was 10200 ng/g. It also gave a concentration at 2 hr [3, 17] of 12900 ng/g, a concentration at 3 h [3, 17] of 14800 ng/g and a concentration at 5 h [3, 17] of 11500 ng/g. For the same compound, the concentration at 0.5 h [3, 18] was 26500 ng/g, the concentration at 1 h [3, 18] was 48100 ng/g and the concentration at 1.5 hr [3, 18] was 48800 ng/g. For the same compound, the concentration at 2 hr [3, 18] was 40100 ng/g, the concentration at 3 h [3, 18] was 39800 ng/g and the concentration at 5 h [3, 18] was 25900 ng/g. The concentration at 8 h [3, 18] was 12800 ng/g, the “Content (%) 60? (after 3 weeks)” value ([4]; 60?, 3 weeks) was 87.4% and the “Content (%) Initial” value ([4]; initial) was 98.1%. The “Content (%) Room temperature (after 3 weeks)” value ([4]; room temperature, 3 weeks) was 98.0%, the “MNPCE number vs intact control” value [5] was “not detected significant change” and the Kp [6] was 8.82. For the same compound, the AUC(0-inf) [7, 19] was 9.32 ± 0.28 µg·h/mL, the AUC(0-t) [7, 19] was 7.52 ± 0.22 µg·h/mL and the Cmax [7, 19] was 4.18 ± 0.29 µg/mL. The Tmax [7, 19] was 0 h, the half-life [7, 19] was 2.05 ± 1.55 h and the AUC(0-t) [7, 20] was 52.7 ± 28.7 µg·h/mL. For the same compound, the Cmax [7, 20] was 9.08 ± 4.5 µg/mL, the Tmax [7, 20] was 2.13 ± 0.63 h and the “BA (%)” value ([7]; p.o. 100 mg/kg, calculated by ratio of AUC0-t) was 70.05%.
